Target: T1, KRAS G12C (Homo sapiens, UniProt P01116, G12C)
T1 construct: KRAS G12C (amino acid region: 1-169)
Test: Inhibitory activity on the KRAS G12C nucleotide (GDP-GTP) exchange reaction
Format: biochemical
Conditions: Bodipy FL GDP-bound KRAS G12C 25 nM; preincubation at 25° C. for 4 hours; SOS1 100 nM, GppNHp 1 μM, reaction for 30 minutes
How it was run: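 Bodipy FL-GDP-loaded KRAS G12C (aa 1-169, 25 nM) preincubated with compound 4 h at 25 °C in pH 7.5 Tris buffer, 5% DMSO; exchange started with SOS1 (aa 564-1049, 100 nM) and 1 μM GppNHp for 30 min. Fluorescence change (ex 485/em 520 nm) normalized to DMSO and no-GppNHp controls; IC50 calculated.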

T1 sequence (P01116 1-169 isoform P01116-2 G12C): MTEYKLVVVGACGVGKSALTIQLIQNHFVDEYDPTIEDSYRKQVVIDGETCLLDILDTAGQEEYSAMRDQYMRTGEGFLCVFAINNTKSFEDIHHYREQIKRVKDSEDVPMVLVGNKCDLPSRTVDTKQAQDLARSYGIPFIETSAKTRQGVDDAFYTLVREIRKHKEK

Row | Compound | IC50
1 | C=CC(=O)N1CC(NC(=O)c2c(Cl)nc(CNc3n[nH]c4cc(Cl)c(C(C)(C)C)cc34)n2[C@H]2C[C@H](C)CC[C@H]2C(C)C)C1 [Example 111, N-(1-acryloylazetidin-3-yl)-2-(((5-(tert-butyl)-6-chloro-1H-indazol-3-yl)amino)methyl)-4-chloro-1-((1S,2S,5R)-2-isopropyl-5-methylcyclohexyl)-JH-imidazole-5-carboxamide] | 15 nM
2 | C=CC(=O)N1CC(NC(=O)c2c(Cl)nc(CNc3n[nH]c4cc(Cl)c(C(C)(C)C)cc34)n2[C@@H]2CCN(C(C)C)C2)C1 [Example 114, (R)-N-(1-acryloylazetidin-3-yl)-2-(((5-(tert-butyl)-6-chloro-1H-indazol-3-yl)amino)methyl)-4-chloro-1-(1-isopropylpyrrolidin-3-yl)-1H-imidazole-5-carboxamide] | 7 nM
3 | C=CC(=O)N1CC(NC(=O)c2c(Cl)nc(CNc3n[nH]c4cc(Cl)c(C(C)(C)C)cc34)n2[C@H]2CCN(C(C)C)C2)C1 [Example 116, (S)-N-(1-acryloylazetidin-3-yl)-2-(((5-(tert-butyl)-6-chloro-1H-indazol-3-yl)amino)methyl)-4-chloro-1-(1-isopropylpyrrolidin-3-yl)-1H-imidazole-5-carboxamide] | 8 nM
4 | C=CC(=O)N1CC(NC(=O)c2c(Cl)nc(CNc3n[nH]c4cc(Cl)c(C(C)(C)C)cc34)n2C2CCCN(CC(F)F)C2)C1 (stereo not drawn) [Example 117, N-(1-acryloylazetidin-3-yl)-2-(((5-(tert-butyl)-6-chloro-1H-indazol-3-yl)amino)methyl)-4-chloro-1-(1-(2,2-difluoroethyl)piperidin-3-yl)-1H-imidazole-5-carboxamide] | 9 nM
5 | C=CC(=O)N1CC(NC(=O)c2c(Cl)nc(CNc3n[nH]c4cc(Cl)c(C(C)(C)C)cc34)n2C2CCCN(C)C2)C1 (stereo not drawn) [Example 118, N-(1-acryloylazetidin-3-yl)-2-(((5-(tert-butyl)-6-chloro-1H-indazol-3-yl)amino)methyl)-4-chloro-1-(1-methylpiperidin-3-yl)-1H-imidazole-5-carboxamide] | 5 nM
6 | C=CC(=O)N1CC(NC(=O)c2c(Cl)nc(CNc3n[nH]c4cc(Cl)c(C(C)(C)C)cc34)n2[C@@H]2CCN(CCOC)C2)C1 [Example 119, (R)-N-(1-acryloylazetidin-3-yl)-2-(((5-(tert-butyl)-6-chloro-1H-indazol-3-yl)amino)methyl)-4-chloro-1-(1-(2-methoxyethyl)pyrrolidin-3-yl)-1H-imidazole-5-carboxamide] | 11 nM
7 | C=CC(=O)N1CC(NC(=O)c2c(Cl)nc(CNc3n[nH]c4cc(Cl)c(C(C)(C)C)cc34)n2[C@@H]2CCN(C3CC3)C2)C1 [Example 120, (R)-N-(1-acryloylazetidin-3-yl)-2-(((5-(tert-butyl)-6-chloro-1H-indazol-3-yl)amino)methyl)-4-chloro-1-(1-cyclopropylpyrrolidin-3-yl)-1H-imidazole-5-carboxamide] | 6 nM
8 | C=CC(=O)N1CC(NC(=O)c2c(Cl)nc(CNc3n[nH]c4cc(Cl)c(C(C)(C)C)cc34)n2[C@@H]2CCN(C3COC3)C2)C1 [Example 121, (R)-N-(1-acryloylazetidin-3-yl)-2-(((5-(tert-butyl)-6-chloro-1H-indazol-3-yl)amino)methyl)-4-chloro-1-(1-(oxetan-3-yl)pyrrolidin-3-yl)-1H-imidazole-5-carboxamide] | 5 nM
9 | C=CC(=O)N1CC(NC(=O)c2c(Cl)nc(CNc3n[nH]c4cc(Cl)c(C(C)(C)C)cc34)n2[C@@H]2CCN(Cc3ccccc3)C2)C1 [Example 122, (R)-N-(1-acryloylazetidin-3-yl)-1-(1-benzylpyrrolidin-3-yl)-2-(((5-(tert-butyl)-6-chloro-1H-indazol-3-yl)amino)methyl)-4-chloro-1H-imidazole-5-carboxamide] | 6 nM

From patent US20230181536A1, “ANTICANCER COMBINATION THERAPY WITH N-(1-ACRYLOYL-AZETIDIN-3-YL)-2-((1H-INDAZOL-3-YL)AMINO)METHYL)-1H-IMIDAZOLE-5-CARBOXAMIDE INHIBITOR OF KRAS-G12C” (TAIHO PHARMACEUTICAL CO., LTD., priority 2020, published 2023)
